Test results from patent US20260191196A1, “COMPOSITIONS AND METHODS FOR IMPROVING SOIL MICROBIAL POPULATIONS” (SYNGENTA CROP PROTECTION AG, priority 2022, published 2026).

How the values were obtained:
[1] = system: Trichoderma brevicompactum; assay: Potato field trial: beneficial fungi in soil (ITS sequencing, differential abundance); assay type: in vivo, potato (Solanum tuberculosum L.); conditions: location B; 200 and 250 gai/ha
Experimental: (§1) In this experiment, assuming that biodiversity can be measured by the taxonomic richness and abundance of each taxon, the differences between treatments are determined and their effect on populations and beneficial species over time is verified. This leads to testing two hypotheses. Firstly, there is an impact of cyclobutrifluram applications on microbial diversity. Secondly, the use of cyclobutrifluram improves beneficial microbial diversity over time. These hypotheses were tested in two potato farms in the USA.
The experiment was carried out in two potato (Solanum tuberculosum L.) fields located in two test locations in Louisiana, USA, described as locations A and B in Table 2. […]
(§2) As set out above, to detect microbial community modifications in the soil microbiome associated with the cyclobutrifluram treatment, PCR amplification and successive high-throughput sequencing of bacterial and fungal taxonomical marker genes (the small-subunit ribosomal RNA gene (16S) and the ribosomal internal transcribed spacers (ITS) respectively) were performed on plant-associated soil samples. An exploratory data analysis was conducted to describe the microbial biodiversity and the behaviour of the percentage of the abundance of species under the evaluated factors. […]

[2] = system: beneficial bacterial species; assay: Potato field trial: beneficial bacteria in soil (16S sequencing, differential abundance); assay type: in vivo, potato (Solanum tuberculosum L.)
Experimental: as §1
(§3) The experiment was carried out in two potato (Solanum tuberculosum L.) fields located in two test locations in Louisiana, USA, described as locations A and B in Table 2. In each experimental field, three products were tested in an area of 10 m^2 (Table 3) and three replicates per product were established by complete block randomized. To evaluate the effects on the microbiome a “Check” plot (untreated) was established. In addition, fluopyram was employed as a comparative example. Fluopyram is a widely used fungicide and nematicide, and represents the industry standard herein.
(§4) To analyse the microbial biodiversity, three soil samples were taken per treatment and each sample consisted of soil collected from three different points within the plots. In this way, the effect of soil variability was minimized, since there were nine samples per treatment. […]
as §2

[3] = system: soil fungal community; assay: Plant associated soil microbiome: fungal community by ITS amplicon sequencing; assay type: in vivo, tomato plants
From the text: Differential abundance of fungal taxa after 97 days in treated soil, as detected by PCR amplification and successive high-throughput sequencing of fungal taxonomical marker genes (the small-subunit ribosomal RNA gene (16S) and the ribosomal internal transcribed spacers (ITS) respectively) on plant-associated soil samples.
To detect microbial community modifications in the soil microbiome associated with the cyclobutrifluram treatment against root knot nematodes, PCR amplification and successive high-throughput sequencing of bacterial and fungal taxonomical marker genes (the small-subunit ribosomal RNA gene (16S) and the ribosomal internal transcribed spacers (ITS) respectively) were performed on plant-associated soil samples.
Comparison of the fungal community of Control and RKN-Cyclobutrifluram plant-associated 5 soil samples highlighted a microbiome shift mainly characterised by the reduction of the plant-pathogen Fusarium, an ubiquitous pathogenic fungus that constitutes an abundant taxon in control soil. Fusarium relative abundance results reduced from 17.8% in control samples to 7.5% after cyclobutrifluram treatment. Table 1b reports fungal genera detected by ITS gene amplicon sequencing with taxonomy assignment at genus level; relative abundance in Control and Cyclobutrifluram treated samples statistically significative (Deseq2, p=0.1), the relative abundance variation.

[4] = system: bacteria (16S) and fungi (ITS) communities; assay: Potato field trial: soil microbiome community and biodiversity; assay type: in vivo, potato (Solanum tuberculosum L.); conditions: locations A and B, T0-T3
Experimental: as §1, §3, §4, §2

[5] = Cyclobutrifluram treated plant-associated soil, RKN

SMILES: O=C(N[C@@H]1CC[C@@H]1c1ccc(Cl)cc1Cl)c1cccnc1C(F)(F)F (racemic) [Cyclobutrifluram, cyclobutrifluram]
- Trichoderma brevicompactum relative abundance [1]: significant enhancement
- abundance of Bacillus halmapalus and B. cereus ([2]; T2 (60 days after treatment)): increased significantly
- Sphingomonas species (S. sediminicola, S. japsi and S. daechungensis) abundance ([2]; location A in T3 (120 days after application), location B in T2 (60 days after application)): tend to increase significantly
- Pseudomonas putida abundance ([2]; location A, 200 and 250 gai/ha): significant increase
- Relative abundance, Acremonium [3, 5]: 0.214%
- Relative abundance, Arthrinium [3, 5]: 0.398%
- Relative abundance, Candida [3, 5]: 0.839%
- Relative abundance, Chrysosporium [3, 5]: 17.327%
- Relative abundance, Cladosporium [3, 5]: 3.983%
- Relative abundance, Conostachys [3, 5]: 0.797%
- Relative abundance, Eleutherascus [3, 5]: 0.217%
- Relative abundance, Endoconidiophora [3, 5]: 5.102%
- Relative abundance, Fusarium [3, 5]: 7.544%
- Relative abundance, Humicola [3, 5]: 0.000%
- Relative abundance, Lectera [3, 5]: 1.767%
- Relative abundance, Monocillium [3, 5]: 0.083%
- Relative abundance, Mortierella [3, 5]: 2.111%
- Relative abundance, Mycosphaerella [3, 5]: 1.672%
- Relative abundance, Oidiodendron [3, 5]: 0.292%
- Relative abundance, Paraphoma [3, 5]: 0.043%
- Relative abundance, Phialemonium [3, 5]: 0.357%
- Relative abundance, Pseudaleuria [3, 5]: 1.936%
- Relative abundance, Pseudogymnoascus [3, 5]: 0.870%
- Relative abundance, Saitozyma [3, 5]: 0.907%
- Relative abundance, Schwanniomyces [3, 5]: 0.017%
- Relative abundance, Sebacina [3, 5]: 0.077%
- Relative abundance, Solicoccozyma [3, 5]: 0.407%
- Relative abundance, Tetracladium [3, 5]: 0.318%
- Relative abundance, Verticillium [3, 5]: 0.571%
- Relative abundance, Fusarium ([3]; Cyclobutrifluram treated plant-associated soil, RKN, listed as cyclobutrifluram): 7.5%
- relative abundance variation vs Control, Acremonium ([3]; Deseq2, p=0.1): +0.056%
- relative abundance variation vs Control, Arthrinium ([3]; Deseq2, p=0.1): +0.293%
- relative abundance variation vs Control, Candida ([3]; Deseq2, p=0.1): −0.269%
- relative abundance variation vs Control, Chrysosporium ([3]; Deseq2, p=0.1): +2.918%
- relative abundance variation vs Control, Cladosporium ([3]; Deseq2, p=0.1): −1.949%
- relative abundance variation vs Control, Conostachys ([3]; Deseq2, p=0.1): +0.132%
- relative abundance variation vs Control, Eleutherascus ([3]; Deseq2, p=0.1): +0.108%
- relative abundance variation vs Control, Endoconidiophora ([3]; Deseq2, p=0.1): +2.581%
- relative abundance variation vs Control, Fusarium ([3]; Deseq2, p=0.1): −10.274%
- relative abundance variation vs Control, Humicola ([3]; Deseq2, p=0.1): −0.112%
- relative abundance variation vs Control, Lectera ([3]; Deseq2, p=0.1): +1.617%
- relative abundance variation vs Control, Monocillium ([3]; Deseq2, p=0.1): +0.070%
- relative abundance variation vs Control, Mortierella ([3]; Deseq2, p=0.1): −0.412%
- relative abundance variation vs Control, Mycosphaerella ([3]; Deseq2, p=0.1): −0.541%
- relative abundance variation vs Control, Oidiodendron ([3]; Deseq2, p=0.1): +0.054%
- relative abundance variation vs Control, Paraphoma ([3]; Deseq2, p=0.1): −0.023%
- relative abundance variation vs Control, Phialemonium ([3]; Deseq2, p=0.1): −0.044%
- relative abundance variation vs Control, Pseudaleuria ([3]; Deseq2, p=0.1): +1.181%
- relative abundance variation vs Control, Pseudogymnoascus ([3]; Deseq2, p=0.1): +0.550%
- relative abundance variation vs Control, Saitozyma ([3]; Deseq2, p=0.1): −0.038%
- relative abundance variation vs Control, Schwanniomyces ([3]; Deseq2, p=0.1): −0.005%
- relative abundance variation vs Control, Sebacina ([3]; Deseq2, p=0.1): −0.027%
- relative abundance variation vs Control, Solicoccozyma ([3]; Deseq2, p=0.1): +0.082%
- relative abundance variation vs Control, Tetracladium ([3]; Deseq2, p=0.1): +0.088%
- relative abundance variation vs Control, Verticillium ([3]; Deseq2, p=0.1): +0.156%
- effect on soil microbiome diversity (fungal taxa, FIG. 1) ([3]; apart from inhibiting Fusarium): preserves soil microbiome diversity
- relative abundance of the plant-pathogen Fusarium (in words) ([3]; soil of tomato plants in presence of RKN infestation, medium-long term): substantially reduced
- changes into the soil microbiome community [4]: did not induce negative changes
